Reference: US8791155B2, “Chroman derivatives” (Edison Pharmaceuticals, Inc., priority 2003, dated 2014)

Key:
FRDA fibroblasts = assay: FRDA fibroblast assay for protection from oxidative stress (BSO); format: cell-based; settings: Homo sapiens, preincubation 24 h before 1 mM BSO, read-out: EC50, reduced cell death in FRDA fibroblasts compared to untreated FRDA fibroblasts
Description: A cellular assay using FRDA-patient derived fibroblasts (as described by Jauslin, M L et al, Human Molecular Genetics 11; 3055-3063 (2002)); was used to determine the protective effects of the test compounds by analyzing survival of dermal fibroblasts taken from FRDA patients and unaffected normal donors under conditions of partial GSH depletion. Exposure of FRDA fibroblasts to BSO (L-buthionine (S,R)-sulfoximine) under conditions of restricted selenium causes depletion of cellular glutathione (GSH) and severe plasma membrane damage leading to cell death. Preincubation with the test compounds before the addition of BSO was used to determine if they could protect FRDA cells from BSO-mediated cell death.
Primary fibroblasts were derived from donors with a molecular diagnosis of FRDA and control donors with no mitochondria) disease. Lines F2, C2 and C3 were obtained from Coriell Cell Repositories (Camden, N.J., USA; catalog nos GM04078, GM 08402 and GM08399, respectively). All cell types were diagnosed at the molecular level for intronic GAA triplet repeat length in the frataxin gene using a PCR-based method, according to methods known in the art. […] The cells were seeded in 96-well plates at a density of 4000 cells per 100 pI in growth medium consisting of 25% (v/v) M199 EBS and 64% (v/v) MEM EBS without phenol red (Bioconcept, Allschwil, Switzerland) supplemented with 10% (v/v) fetal calf serum (PAA Laboratories, Linz, Austria), 100 U/ml penicillin, 100 μg/ml streptomycin (PAA Laboratories, Linz, Austria), 10 μg/ml insulin (Sigma, Buchs, Switzerland), 10 ng/ml EGF (Sigma, Buchs, Switzerland), 10 ng/ml bFGF (PreproTech, Rocky Hill, N.J., USA) and 2 mM glutamine (Sigma, Buchs, Switzerland). The cells were incubated in the presence of the various test compounds for 24 h before addition of 1 mM BSO (L-buthionine (S,R)-sulfoximine).
Cell viability was measured after the first signs of toxicity appeared in the BSO-treated controls (typically after 16-48 h). The cells were stained for 60 min at room temperature in PBS with 1.2 μm calceinAM and 4 pm ethidium homodimer (Live/Dead assay, Molecular Probes, Eugene, Oreg., USA). Fluorescence intensity was measured with a Gemini Spectramax XS spectrofluorimeter (Molecular Devices, Sunnyvale, Calif., USA) using excitation and emission wavelengths of 485 and 525 nm, respectively.

[1] = system: dopaminergic neuronal cell line; assay: High glutamate-induced oxidative stress assay (HGOS); format: cell-based; settings: Mus musculus; 30 mM glutamate, 16 hrs; read-out: EC50, protection against HGOS cell injury and cell death
In short: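 Mouse dopaminergic cells were grown 72 h at 33° C, washed into HBSS, then exposed to compounds in glucose-free DMEM with 1 mM glucose and 30 mM glutamate for 16 h at 37° C. Viability was read as Cell Tracker Green fluorescence at 485/538 nm after 30 min of 5 μM dye loading.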

| SMILES | EC50 (FRDA fibroblasts) [µM] | EC50 [1] [µM] |
| --- | --- | --- |
| C=CCSCc1c(O)c(C)c(C)c2c1CCC(C)(C)O2 [5-Allylsulfanylmethyl-2,2,7,8-tetramethyl-chroman-6-ol] | 0.01 to 6 | < 5 |
| CC1=NN(c2ccccc2)C(=O)C1C(CCC1(C)CCc2cc(O)c(C)c(C)c2O1)C1C(=O)N(c2ccccc2)N=C1C (centres unmarked) [1-(6-Hydroxy-2,7,8-trimethyl-chroman-2-yl)-3-bis-(5-methyl-2-phenyl-2,4-dihydro-pyrazol-3-one-4-yl)-propane] | 0.01 to 6 | < 5 |
| COC(=O)c1ccc(-c2c(O)c(C)c(C)c3c2CCC(C)(C)O3)cc1 [4-(6-Hydroxy-2,2,7,8-tetramethyl-chroman-5-yl)-benzoic acid methyl ester] |  | < 5 |
| Cc1c(C)c2c(c(C)c1O)CCC(C)(C=C(Br)Br)O2 (centres unmarked) [2-(2,2-Dibromo-vinyl)-2,5,7,8-tetramethyl-chroman-6-ol] |  | < 5 |
| Cc1c(O)cc2c(c1C)OC(C)(CC/C=C1\SC(=O)NC1=O)CC2 (centres unmarked) [5-[3-(6-Hydroxy-2,7,8-trimethyl-chroman-2-yl)-propylidene]-thiazolidine-2,4-dione] | 0.01 to 6 | < 5 |
